Values quoted from earlier work as cited in patent US20120061267A1, “MediTowel Anti-Fungal Wipe” (priority 2010, published 2012).
Where a name gives a salt, the structure may show the parent alone.

Key:
[1] = test system: squalene epoxidase; conditions: in the cells of fungi
[2] = test system: Trichophyton mentagrophytes; conditions: at a low concentration

In the case of CN(C/C=C/C#CC(C)(C)C)Cc1cccc2ccccc12 [Terbinafine hydrochloride], the “inhibition of squalene epoxidase” value [1] is given as “selectively inhibits” and the “fungicidal effect on sterilizing germinated conidium” value [2] is given as “fungicidal effect”.
